We go through 17 compounds from patent publication US11466298B2, “Method for preparing phosphorylated keto polyols, derivatives thereof and uses thereof” (COMMISSARIAT A L'ENERGIE ATOMIQUE ET AUX ENERGIES …, priority 2017, dated 2022).

Assay [1] has as its target T1, aldolase (SEQ ID NO: 10), RhaD aldolase (Bacteroides thetaiotaomicron, UniProt Q8A1A0).
T1 construct: made in house
The assay is described as follows: Screening of ketones as acceptors with DHAP as donor, DHAP disappearance assay plus mass spectrometry. The assay is classed as biochemical. As to conditions: for DHAP disappearance (%): 10 eq of ketone, 8 μmol DHAP, CoCl2, pH 7.5, RT, 5 h, under Ar; for acceptor of the enzyme when DHAP is the donor: SEQ ID NO: 10. The procedure:
Enzyme corresponding to SEQ ID No 10 was purified for deeper characterization and a scale up was performed to analyze the new branched sugars. This aldolase was tested with DHAP as donor and various ketones under argon conditions to avoid oxidation of DHAP and cobalt ion (CoCl2) to optimize the activity. Conversion of the various reactions was determined by assaying DHAP disappearance using triose-phosphate-isomerase coupled with ca-glycerophosphate dehydrogenase enzymes. In addition the products of those reactions were analyzed by mass spectrometry. When the data from the two systems are in agreement, the compound is considered to be substrate of the enzyme.
Prior to the reaction, all the solutions and solids were degased by bubbling or circulating Ar. Under an Ar atmosphere, 1 mg of aldolase (SEQ ID NO: 10, 6.5 U), 8 μmol of DHAP (123 μL of 65 mM solution), 8 μL CoCl2 (10 mM), 10 eq of electrophile (selected ketone) and water to reach 200 μL final volume were added in a vial. The pH was adjusted to 7.5. The reaction mixture was gently stirred at RT for 5 h. DHAP disappearance was followed spectrophotometrically. The aldolase was removed by filtration over ultra-centrifugal filter unit (Amicon, 10 kDa). The reaction medium was directly analyzed by mass spectrometry (liquid chromatography (Alliance 2695—Waters) coupled to high resolution mass spectrometry (Micromass Q-TOF—Waters)).

Assay [2] concerns enzymes of SEQ ID NO:1-10 (RhaD). The assay is described as follows: LC/MS Orbitrap validation of products from 6 ketones, RhaD enzymes. Type of assay: biochemical. As to conditions: 5 to 10 eq of ketone, CoCl2, pH 7.3, 5 h at RT, LC/MS detection. The procedure: (§1) A mother solution was prepared by mixing DHAP (5.2 mL, 35 mM), CoCl2 (200 μL, 10 mM), 5 to 10 eq of ketone, adjusted to pH 7.3 and degased under Ar. In 10 vials containing each 4 mg of enzyme to screen (beforehand degased under Ar) were added 400 μL of the mother solution. The reactions were gently stirred for 5 h at RT. The aldolase was removed by filtration over ultra-centrifugal filter unit (Amicon, 10 kDa). The reaction medium was analyzed by mass spectrometry.
(§2) The detection of the compounds of interest was performed by LC/ESI-MS method using a Dionex TCC-3000RS chromatographic system (Thermo Fisher Scientific, Courtaboeuf, France) coupled to an ultra-high resolution Orbitrap Elite hybrid mass spectrometer ((Thermo Fisher Scientific, Courtaboeuf, France) equipped with a HESI source.
(§3) A Sequant ZICpHILIC column […], 2.1×100 mm (Merck, Darmstadt, Germany) thermostated at 15° C. was employed for HPLC separation. Mobile phase flow rate was set at 0.2 ml/min, and injection volume was 5 μl. Aqueous solution of 10 mM (NH4)2CO3 (at a pH of 9.9 adjusted by NH4OH) was used as phase A and acetonitrile was used as solvent B. The following gradient conditions were applied for elution: 1 min equilibration step at 80% of phase B; 7 min linear gradient from 80 to 40% of phase B; 3 min isocratic elution at 40% of B, return to 80% of phase B in 3 min and a reconditioning step of 8.5 min.
(§4) Mass and product ion spectra were recorded in the ESI negative ion mode. Ion spray (IS) was set at −4.5 kV and capillary temperature at 275° C. Sheath gas, auxiliary gas and sweep gas flow rates were set at 60, 10 and 0 arbitrary units, respectively. The mass resolution power of the detector was 60000.
(§5) Raw data were manually inspected using the Qual-browser module of Xcalibur version 2.2 (Thermo Fisher Scientific, Courtaboeuf, France) for enzymes from SEQ ID NO:1 to 20 and SEQ ID NO:23 for DHAP+dihydroxyacetone, and for SEQ ID NO:1 to 10 for the other couples of reagents.

The test system of the next assay is SEQ ID: 23 (FucA). The assay is described as follows: LC/MS Orbitrap validation of products from 6 ketones, FucA enzyme. Type of assay: biochemical, Kyrpidia tusciae. To be noted: 5 to 10 eq of ketone, CoCl2, pH 7.3, 5 h at RT, LC/MS detection. Here is the method:
as §1, §2, §3, §4, §5

Assay [3] deals with RhaD of various microorganisms including E. coli (Escherichia coli, UniProt P32169). The assay is described as follows: Substrate spectrum of RhaD aldolases with respect to ketones. Type of assay: biochemical.
Sequence of RhaD of various microorganisms including E. coli (P32169 whole entry): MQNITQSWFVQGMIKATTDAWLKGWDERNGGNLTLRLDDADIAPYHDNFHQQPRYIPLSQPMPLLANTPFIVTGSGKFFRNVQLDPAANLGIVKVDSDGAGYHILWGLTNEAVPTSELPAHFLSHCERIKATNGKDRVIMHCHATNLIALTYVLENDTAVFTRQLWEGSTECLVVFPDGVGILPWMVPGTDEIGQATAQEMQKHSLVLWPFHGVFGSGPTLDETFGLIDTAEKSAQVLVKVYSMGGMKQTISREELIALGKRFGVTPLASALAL
Assay [4] concerns RhaD aldolases of SEQ ID NO:1 to SEQ ID NO:21. As to the kind of experiment: Aldol reaction of DHAP with dihydroxyacetone (DHA), RhaD aldolases. To be noted: 10 eq of DHA, CoCl2, pH 7.5, RT, 5 h. The assay is classed as biochemical. The procedure:
(§6) Aldolases were tested with DHAP as donor and DHA as acceptor. Cobalt ion (CoCl2) to was added to optimize the activity. Conversion of the reactions was determined by assaying DHAP disappearance using triose-phosphate-isomerase coupled with α-glycerophosphate dehydrogenase enzymes. In addition the products of those reactions were analyzed by mass spectrometry. When the data from the two systems are in agreement, DHA is considered to be substrate of the enzyme.
(§7) 1 mg of aldolase (RhaD, FucA or TagA), 8 μmol of DHAP (123 μL of 65 mM solution), 8 μL CoCl2 (10 mM), 10 eq of DHA and water to reach 200 μL final volume were added in a vial. The pH was adjusted to 7.5. The reaction mixture was gently stirred at RT for 5 h. DHAP disappearance was followed spectrophotometrically. The aldolase was removed by filtration over ultra-centrifugal filter unit (Amicon, 10 kDa). The reaction medium was directly analyzed by mass spectrometry (liquid chromatography (Alliance 2695—Waters) coupled to high resolution mass spectrometry (Micromass Q-TOF—Waters)).

Assay [5] concerns L-fuculose-1-phosphate aldolase (FucA) of SEQ ID NO:22-23, and 26-34. As to the kind of experiment: Aldol reaction of DHAP with dihydroxyacetone (DHA), FucA aldolases. Type of assay: biochemical. To be noted: 10 eq of DHA, CoCl2, pH 7.5, RT, 5 h. Here is the method: as §6, §7
The target in assay [6] is T2, L-tagatose 1.6 biP aldolase (TagA) of SEQ ID NO:35 (Escherichia coli, UniProt P0AB74).
T2 construct: made in house
T2 sequence (P0AB74 whole entry): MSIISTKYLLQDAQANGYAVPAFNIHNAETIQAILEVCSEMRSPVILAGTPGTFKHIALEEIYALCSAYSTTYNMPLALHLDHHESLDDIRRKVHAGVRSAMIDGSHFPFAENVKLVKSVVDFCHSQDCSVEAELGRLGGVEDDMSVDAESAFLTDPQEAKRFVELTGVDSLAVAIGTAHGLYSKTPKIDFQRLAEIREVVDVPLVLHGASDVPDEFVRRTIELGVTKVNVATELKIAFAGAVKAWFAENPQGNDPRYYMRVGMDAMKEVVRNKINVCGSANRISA
The assay is described as follows: Aldol reaction of DHAP with dihydroxyacetone (DHA), TagA aldolase. Type of assay: biochemical. As to conditions: 10 eq of DHA, CoCl2, pH 7.5, RT, 5 h. The procedure: as §6, §7

The test system of assay [7] is DHA aldolases (i.e. FSA of E. coli), deoc aldolase, class I DHAP aldolases and pyruvate aldolases. As to the kind of experiment: Aldol reaction of DHAP with DHA, aldolases not belonging to class II DHAP aldolases. Type of assay: biochemical. As to conditions: data not shown.

T1 sequence (Q8A1A0 whole entry, change not shown): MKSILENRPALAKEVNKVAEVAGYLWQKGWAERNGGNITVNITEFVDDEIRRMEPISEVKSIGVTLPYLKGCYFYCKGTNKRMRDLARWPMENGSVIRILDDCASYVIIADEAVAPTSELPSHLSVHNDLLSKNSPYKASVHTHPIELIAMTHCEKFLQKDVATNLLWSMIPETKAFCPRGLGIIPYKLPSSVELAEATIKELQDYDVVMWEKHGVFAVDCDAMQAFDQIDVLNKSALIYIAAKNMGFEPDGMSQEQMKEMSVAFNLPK

hydroxyacetone: in assay [1], the “DHAP disappearance (%)” value is recorded as 95%. Further, the “ability of the tested RhaD to catalyze the reaction of DHAP with the ketone to form the expected product” value (shortened to “ability of the tested RhaD”) in assay [2] is listed as “able to catalyze”. Moreover, in the assay on SEQ ID: 23 (FucA), the “ability of the tested FucA to catalyze the reaction of DHAP with the ketone to form the expected product” value (shortened to “ability of the tested FucA”) was “able to catalyze”.
As to `O=C(O)C(=O)CO` [hydroxypyruvate], in assay [1], the “DHAP disappearance (%)” value amounted to 92%. Further, the “ability of the tested RhaD” value in assay [2] is “able to catalyze”. Also, in the assay with SEQ ID: 23 (FucA), the “ability of the tested FucA” value is listed as “able to catalyze”.
For `CC(=O)C(C)=O` [butanedione], in assay [1], the “DHAP disappearance (%)” value came to 100%. Further, in assay [2], the “ability of the tested RhaD” value was “able to catalyze”. Besides, the “ability of the tested FucA” value in the assay on SEQ ID: 23 (FucA) is “able to catalyze”.
Take `O=C1CCCC1` [cyclopentanone]: in assay [1], the “DHAP disappearance (%)” value amounted to 0% and the “acceptor of the enzyme when DHAP is the donor” value (shortened to “acceptor of the enzyme”) is reported as “not acceptors”. Further, in assay [3], the “ability of RhaD to catalyze the reaction of DHAP with the ketone” value (from here on “ability of RhaD”) is recorded as “unable to catalyze”.
Consider `CC(=O)C(C)O` (stereo not drawn), for which, in assay [1], the “DHAP disappearance (%)” value is reported as 96%.
Regarding acetone, in assay [1], the “DHAP disappearance (%)” value came out at 0% and the “acceptor of the enzyme” value is recorded as “not acceptors”. Besides, in assay [3], the “ability of RhaD” value is “unable to catalyze”.
In the case of `CC(=O)CC(C)=O`, in assay [1], the “DHAP disappearance (%)” value came out at 83%.
The same measure, in the same setting: then `CCC(=O)CO` [1-hydroxybutanone], with 84%.
For `O=C(CO)[C@@H](O)CO` [L-erythrulose], the “DHAP disappearance (%)” value in assay [1] was 100%. In addition, in assay [2], the “ability of the tested RhaD” value is given as “able to catalyze”. For the same compound, the “ability of the tested FucA” value with SEQ ID: 23 (FucA) was “able to catalyze”.
Regarding `CC(=O)CCO` [4-hydroxybutan-2-one], the “acceptor of the enzyme” value in assay [1] is listed as “not acceptors”.
Regarding `O=C(CCl)CCl`, the “DHAP disappearance (%)” value in assay [1] is 72%.
In the case of butanone, in assay [1], the “DHAP disappearance (%)” value came to 0% and the “acceptor of the enzyme” value is recorded as “not acceptors”. Also, in assay [3], the “ability of RhaD” value was “unable to catalyze”.
With `O=C1CCCCC1O` (stereo not drawn) [2-hydroxycyclohexanone], the “DHAP disappearance (%)” value in assay [1] worked out at 84%. For the same compound, the “ability of the tested RhaD” value in assay [2] is on record as “able to catalyze”. Further, the “ability of the tested FucA” value with SEQ ID: 23 (FucA) is on record as “able to catalyze”.
On to `CC(=O)CCO` [drawing 99], for which, in assay [1], the “DHAP disappearance (%)” value was found to be 0%.
On the same count and under the same terms, then `O=C(CO)Cc1ccccc1`, with 71%.
For the compound `O=C(CO)CO` [dihydroxyacetone], the “DHAP disappearance (%)” value in assay [1] is recorded as 100%. Further, the “ability of the enzymes to catalyse the reaction between DHAP and DHA” value in assay [4] is listed as “able to catalyse”; in assay [5], “same results”. For the same compound, in assay [6], the “ability of the enzyme to catalyse the reaction between DHAP and DHA” value is listed as “same results”. Besides, the “ability of the enzymes to catalyse the reaction between DHA and DHAP” value in assay [7] is “failed to catalyze”. In addition, in assay [2], the “ability of the tested RhaD” value was “able to catalyze”. The “ability of the tested FucA” value in the assay on SEQ ID: 23 (FucA) is reported as “able to catalyze”.
With `CC(=O)C(=O)O`, the “DHAP disappearance (%)” value in assay [1] is 75%.
